In patent US8685423B2, “Controlling mealybugs” (priority 2011, dated 2014):

Test system: mealybug, Pseudococcus spp.
Assay: Field efficacy on mealy bug, small-plot trials on cotton (Trials A, B, C)
Assay type: in vivo
Conditions: Sulfoxaflor 50 g/ha, Chlorpyrifos 500 g/ha, mixture 50 + 500 g/ha
Method: Field Efficacy on Mealy Bug
Applications were made to cotton, Gossypium hirsutum, using small-plot efficacy methods. Chemicals were diluted in water and all treatments were applied using a backpack sprayer calibrated to deliver 500 liters of spray per hectare. Experimental plots measured 5 by 10 meters and each treatment was replicated three times in each trial. Prior to treatment, 20 plants that were uniformly infested with mealybug, Pseudococcus spp., were marked in each experimental plot. At the specified intervals after treatment, the severity of mealybug infestation on the marked plants was rated using a 0-4 scale, where 0=no infestation and 4=stunted, blackened plant. The score for each plant in each experimental plot was summed to provide a total severity score for the plot. Data were transformed to percent control relative to the untreated plots, then subjected to analysis of variance, and means were separated using Tukey's HSD (p=0.1). Expected control was calculated using the method of Colby and compared to observed control. See the Table Section for the results of the Field Trials.

SMILES	% Control (Trial A, 3 DAT) [%]	% Control (Trial A, 7 DAT) [%]	% Control (Trial A, 11 DAT) [%]	% Control (Trial B, 3 DAT) [%]	% Control (Trial B, 7 DAT) [%]	% Control (Trial B, 11 DAT) [%]	% Control (Trial B, 14 DAT) [%]	% Control (Trial C, 4 DAT) [%]	% Control (Trial C, 8 DAT) [%]	% Control (Trial C, 11 DAT) [%]	% Control (Trial C, 14 DAT) [%]
CCOP(=S)(OCC)Oc1nc(Cl)c(Cl)cc1Cl [Chlorpyrifos]	35.64	43.34	43.60	35.23	38.80	33.51	26.89	36.44	33.37	28.24	23.03
CC(c1ccc(C(F)(F)F)nc1)S(C)(=O)=NC#N (stereo not shown) [Sulfoxaflor]	17.56	21.65	20.68	−2.66	7.81	7.81	5.32	7.39	9.19	4.76	2.49
